Measured values taken from patent US12599602B2, “Methods for treating cholestasis” (Mirum Pharmaceuticals, Inc., priority 2019, dated 2026).
Structures can show the parent of a compound that is named as a salt.

Test system: Overweight and obese adults
Experiment: Phase 1 blinded, placebo-controlled, dose-ranging clinical study (NCT02475317), fecal bile acid excretion
Method: Participants consumed a low-fiber diet (<10 mg/day) for 2 days before randomization and during the 7-day treatment period. Measurements were taken of fBA, sBA concentration, and serum 7αC4 concentration (which is a biomarker of bile acid synthesis) prior to drug administration and at day 7.

`CCCC[C@]1(CC)CS(=O)(=O)c2ccc(N(C)C)cc2[C@@H](c2cccc(NC(=O)N[C@@H]3O[C@H](COS(=O)(=O)O)[C@@H](O)[C@H](OCc4ccccc4)[C@H]3O)c2)[C@H]1O` [volixibat, (2R,3R,4S,5R,6R)-4-benzyloxy-6-{3-[3-((3S,4R,5R)-3-butyl-7-dimethylamino-3-ethyl-4-hydroxy-1,1-dioxo-2,3,4,5-tetrahydro-1H-benzo[b]thiepin-5-yl)-phenyl]-ureido}-3,5-dihydroxy-tetrahydro-pyran-2-ylmethyl) hydrogen sulfate] was tested, and the “Mean sBA levels” value (7 days) was “not elevated”, the fBA excretion (across doses) was “increased in a dose-dependent manner” and the “treatment-emergent adverse events occurring in over 10% of participants” value (all doses) was “headache and diarrhea”. For the same molecule, the “treatment-emergent adverse events, severity” value (all doses) was “mild, and none were serious” and the “Mean serum 7αC4” value (baseline to day 7) was “increased”.
